Entries after “also recorded” stand apart in the source; their conditions may differ. Like-named read-outs stand apart in the source and are kept apart here.
How the values were obtained:
[1] = system: deacetylase; conditions: cited from earlier work
[2] = Procedure: Drug Formulation. […] This solution was administered to mice in place of drinking water and replaced weekly.
Animals. Affected mice were hemizygous R6/2 females (Mangiarini, L., et al. (1996) Cell 87: 493-506) (available from the Induced Mutant Resource, Jackson Laboratory, Bar Harbor Me., code B6CBA-TgN (HDexon1)62), bred and reared in our colony by backcrossing R6/2 males to C57BL/6×CBA F1 females. Transgenic animals were identified prior to weaning by PCR of tail-tip DNA and CAG repeat size was determined (Mangiarini, L., et al. (1997) Nat Genet 15: 197-200). Control mice were wild-type female littermates. Mice were weaned into their treatment groups at 4 weeks of age. […] From age 12 weeks, all animals were additionally given mash consisting of powdered chow mixed with the drug solution as given in the drinking bottle. The mice were subject to a 12 hour light (08:00-20:00), 12 hour dark (20:00-08:00) cycle. Living conditions and baseline characteristics of study groupings were standardized as previously described (Hockly et al. submitted).
Assuming that a 20 g mouse drinks 3 ml/day, this corresponds to a dose of 1.33 g/l.
Drug administration commenced at 30 days of age after an initial testing week, which was used to assort the mice into well-matched treatment groups (FIG. 28a).

[3] = system: R6/2 mice; assay: Rotarod analysis of motor impairment; type: in vivo
Procedure: (§1) Animals. […] Control mice were wild-type female littermates.
(§2) Behavioral analysis: Rotarod impairment was assessed on a Ugo Basile 7650 accelerating Rotarod (Linton Instrumentation, UK), modified as previously described (Hockly et al, submitted). Animals (R6/2: n=13, wild-type: n=12 per treatment group) were tested at 4 weeks of age to establish their baseline performance and then at 8, 10 and 12 weeks of age. Grip strength was measured once per fortnight (Hockly et al. submitted) and animals weighed weekly to the nearest 0.1 g. Statistical analysis of grip strength used ANOVA on the mean grip strength. Rotarod data were analyzed at each time point using repeated measures in a linear mixed effects model (in S-plus).

[4] = Body weight in SAHA preclinical trial; type: in vivo, mice
Procedure: as §1, §2

[5] = system: flies expressing Q48; assay: Pseudopupil analysis of rhabdomeres in flies expressing Q48 polyglutamine peptides; type: in vivo, Drosophila; conditions: for progressive photoreceptor neuron degeneration: feeding initiated only in adult flies; for distribution of rhabdomeres by day 6: Q48 flies fed inhibitor, data not shown; for neurodegenerative effect of Q48 (photographs of ommatidia): in vivo
Source text: (§3) Drosophila stocks and crosses. Expression of polyglutamine-containing peptides is driven by the bipartite expression system activator sequence (UAS)-GAL4 in transgenic flies (Marsh, J. L. et al. (2000) Hum. Mol. Gen. 9, 13-25).
(§4) Injection of plasmids expressing Httex1p with 20 or 93 glutamines produced nine and ten lines, respectively. Two lines with the most severe neuronal phenotype (P463 and P465) were chosen for the experiments described herein. Polyglutamine stocks are w;P(w^+mC=UAS-Q93httexon1)^4F1 and w;P(w^+mC=UAS-Q48+myc/flag)^20. Constructs under the control of a yeast UAS were crossed to flies expressing the yeast GAL4 transcriptional activator (Brand, A. and Perrimon, N., supra) driven by the neuron-specific promoter elav (chromosome 2 driver for Q48 lines, Luo, L. et al. (1994) Genes Dev. 8, 1787-1802, and X-chromosome driver for Htt exon 1 lines, Lin, D. M. & Goodman, C. S. (1994) Neuron 13, 507-523) that is expressed in all neurons from embryogenesis onwards: w;P(w^+mC;w+; elav-GAL4)/CyO, P(w^+mC=Act-GFP)JMR1CyO actin-GFP or w;P(w^+mW.hs=GawB)elavC155.
For testing the effect of Sin3A on polyglutamine phenotypes, we crossed w;P(w^+mC=UAS-Q93httexon1)^4F1 virgins to w;P{w^+mCwPw;elav-GAL4)/Y;Sin3A^08269/Bc Gla males.
Pseudopupil analysis and transgene expression. Pseudopupil analysis allows visualization of the arrangement of rhabdomeres in the ommatidia of the compound eye (Franceschini, N. (1972) in Information processing in the visual systems of arthropods, ed. Wehner, R., pp 75-82). Adult flies were decapitated, one eye was dipped in a drop of nail polish and the head was mounted on a microscope slide. Eyes were analyzed with a Nikon EFD-3/Optiphot-2 scope using a 50× objective, and photographed with a Spot camera. At least 200 ommatidia were scored for each condition. For Western analysis of transgene expression, 20 larvae from each sample were ground in a buffer containing 0.1 M phosphate at pH7.1, 0.3 M sucrose, 0.02 mM phenylthiourea, protease cocktail and 0.1 mM PMSF, and 200 μg of total lysate were loaded per lane.

[6] = system: huntingtin aggregate load; assay: Organotypic hippocampal slice culture assay of polyQ aggregation; type: cell-based, R6/2 mice
Procedure: The present inventors established that HOP-[…]-CD has no effect on polyQ aggregation over a 5-log concentration range (data not shown) and therefore the HOP-[…]-CD concentration required to complex 250 μM was used as the vehicle. The medium was changed twice weekly and slices were fixed at weekly intervals from 2 weeks in culture. The huntingtin aggregate load was assessed by quantitative indirect immunofluorescence and results were analyzed using the general linear model ANOVA with false discovery rate correction (Hochberg, Y. & Benjamini, Y. (1990) Stat Med 9: 811-8).
We have developed this technique to bridge the gap between wholly in vitro aggregation assays and preclinical trials and allow us to quantify aggregate formation in a system in which aggregates form at the same rate and in the same sequence as they do in vivo.

[7] = system: flies expressing Httex1p Q93; assay: Pseudopupil analysis of rhabdomeres in flies expressing Httex1p Q93; type: in vivo, Drosophila
Source text: as §3
as §4, with “w;P(w^+mW.hs=GawB)elavC155. […]” for “w;P(w^+mW.hs=GawB)elavC155.”
Pseudopupil analysis and transgene expression. […] Eyes were analyzed with a Nikon EFD-3/Optiphot-2 scope using a 50× objective, and photographed with a Spot camera. At least 200 ommatidia were scored for each condition. […]

[8] = system: PC12 cells induced to express Httex1p (103QP); assay: Histone acetylation analysis in PC12 cell extract (Western blot); type: cell-based; conditions: PC12 F103QP-EGFP cells, uninduced and induced, 5 mM sodium butyrate for last 24 h
Procedure: Histone acetylation analysis in PC12 cell extract. PC12 cells, stably transfected with ecdysone-inducible (Invitrogen) F103QP-EGFP were plated, induced with 5 μM ponasterone (Invitrogen) for 48 h, and treated for the last 24 h with 5 mM sodium butyrate. Controls included uninduced and/or non-butyrate-treated cells. Cells were lysed in 1×HAT buffer with 50 mM NaCl, 0.3% NP-40, and a protease-inhibitor cocktail on ice for 10 min. A 50 μg aliquot of whole cell extract was analyzed by Western blot.
Separate, independently-derived, ecdysone-inducible PC12 cell lines, denoted PC12/pBWN:Htt ex1Q103-EGFP cells and PC12/pWN:Httex1Q25-EGFP (E. S. Schweitzer, UCLA), were also analyzed. These clonal cells contain a modified exon 1 of Htt inserted into an expression vector containing the Bombyx ecdysone-regulated element (described in Suhr, S. T., et al. (1998) Proc. Natl. Acad. Sci. U.S.A. 95, 7999-8004).
Twenty-five micrograms of whole cell extracts from PC12 cells stably transfected with plasmids encoding inducible 25QP-EGFP and 103QP-EGFP was analyzed for […]. Control cells (uninduced) and cells induced with 1 μM tebufenizide for 12 h were analyzed by Western blots. Anti-acetylated histone H4, anti-histone H3 and anti-acetylated histone H3 (all from Upstate Biotechnology) were used to determine levels of acetylated histones H3 and H4 relative to levels of total H3.

CN(C)c1ccc(C(=O)NCCCCCCCC(=O)NO)cc1 [DBCH, dimethylaminobenzamidylcaprylic hydroxamate]
Effective Inhibitory Concentration Range [1]: nM-μM

O=C(CCCCCCC(=O)Nc1ccccc1)NO [SAHA, Suberoylanilide hydroxamic acid]
effective concentration [1]: ~2.5 µM | deaths before termination of the experiments at 13 weeks ([2]; 0.67 g/l, R6/2 and wild-type): no R6/2 mice or wild-type mice died | OUTCOME ([2]; 1.33 g/1, WT and R6/2, oral, 3 weeks): no adverse symptoms | mice that died at around 6 weeks of age ([2]; 1.33 g/l from 30 days of age, R6/2): 2/13 | weight less than mice on the corresponding placebo ([2]; 1.33 g/l from 30 days of age, after 2 weeks, wild-type and R6/2, data not shown): more than 20% | mice that died at around 6 weeks of age ([2]; 1.33 g/l from 30 days of age, wild-type): 2/12 | OUTCOME ([2]; DE to 2 g/1, R6/2, oral, 1 week): weight loss and one mouse (out of 4) died within one week | OUTCOME ([2]; DE to 2.67 g/1+, WT, oral, 3 weeks): dramatic weight loss | toxicity ([2]; administration initiated at 30 days, doses […]1.33 g/l, wild-type and R6/2): toxic | Rotarod performance / motor impairment versus placebo ([3]; R6/2, 0.67 g/l SAHA in HOP-[…]-CD in drinking water): strong and consistent improvement; also recorded: dramatically improves Rotarod performance; also recorded: highly significant improvement; also recorded: dramatically improve the motor impairment | Rotarod latency to fall ([3]; R6/2, 0.67 g/l SAHA, 8 weeks of age): 207 s | Rotarod latency to fall ([3]; R6/2, 0.67 g/l SAHA, 10 weeks of age): 187 s | Rotarod latency to fall ([3]; R6/2, 0.67 g/l SAHA, 12 weeks of age): 144 s | delay in the decline in Rotarod performance ([3]; R6/2, 0.67 g/l SAHA, 12 weeks versus placebo at 8 weeks): delay by as much as one month | Rotarod performance versus placebo ([3]; wild-type mice, 0.67 g/l SAHA): no significant difference | failure of R6/2 mice to gain weight ([4]; R6/2, 0.67 g/l SAHA): did not prevent; also recorded: did not ameliorate | weight deficit compared to appropriate placebo group ([4]; both wild-type and R6/2, 13 weeks, 0.67 g/l SAHA): ~18% | weight gain compared to littermates on placebo ([4]; wild-type and R6/2, 0.67 g/l SAHA): failed to gain weight to the same extent; also recorded: failing to gain weight at the same rate as placebo-treated mice | progressive photoreceptor neuron degeneration ([5]; 2 μM SAHA): still prevented; also recorded: arrested | distribution of rhabdomeres by day 6 [5]: same distribution of rhadomeres by day 6 as 1-day-old flies | neurodegenerative effect of Q48 (photographs of ommatidia) [5]: disrupts the neurodegenerative effect of Q48 | aggregate load versus vehicle control ([6]; 0.025 μM, 0.25 μM or 2.5 μM SAHA in HOP-[…]-CD, 3 and 4 weeks): no difference; also recorded: no effect | toxicity to slice cultures ([6]; 25 μM and 250 μM): toxic

Nc1ccccc1NC(=O)c1ccc(CNC(=O)OCc2cccnc2)cc1 [benzamide (MS-27-275), MS-275]
Effective Inhibitory Concentration Range [1]: μM

CCCC(=O)O [butyrate, Butyric acid]
Effective Inhibitory Concentration Range [1]: mM | number of rhabdomeres per ommatidium at 6 days after eclosion ([7]; flies fed 100 mM butyrate): markedly improved | level of degeneration (loss of rhabdomeres) ([7]; larvae reared on inhibitor-containing food): reduces the level of degeneration observed | levels of histone H4 acetylation [8]: can be reversed by butyrate treatment | levels of histone H4 acetylation ([8]; listed as sodium butyrate): increased | progressive photoreceptor neuron degeneration ([5]; 100 mM butyrate): still prevented; also recorded: arrested | distribution of rhabdomeres by day 6 [5]: same distribution of rhadomeres by day 6 as 1-day-old flies | neurodegenerative effect of Q48 (photographs of ommatidia) [5]: disrupts the neurodegenerative effect of Q48

C/C=C1\NC(=O)[C@H]2CSSCC/C=C/[C@H](CC(=O)N[C@H](C(C)C)C(=O)N2)OC(=O)[C@H](C(C)C)NC1=O [depsipeptide, Depsipeptide]
Effective Inhibitory Concentration Range [1]: nM-μM

C=C[C@@H](O)[C@@H]1O[C@H]1/C=C/[C@@H]1O[C@H]1[C@@H](C)O [depudecin, Depudecin]
Effective Inhibitory Concentration Range [1]: μM

O=C(/C=C/c1cccc(C(=O)NO)c1)NO [m-carboxy cinnamic acid bis-hydroxamic acid]
Effective Inhibitory Concentration Range [1]: nM-μM

O=C(O)CCCc1ccccc1 [phenylbutyrate, Phenylbutyrate]
Effective Inhibitory Concentration Range [1]: mM

O=C(CCCCCCC(=O)Nc1cccnc1)NO [pyroxamide]
Effective Inhibitory Concentration Range [1]: nM-μM

O=C(CCCCCN1C(=O)c2cccc3cccc(c23)C1=O)NO [scriptaid, Scriptaid]
Effective Inhibitory Concentration Range [1]: nM-μM

O=C(CCCCCCC(=O)NO)NO [suberic bis-hydroxamic acid]
Effective Inhibitory Concentration Range [1]: nM-μM

Oxamflatin
Effective Inhibitory Concentration Range [1]: μM

From US20050227915A1, “Methods and reagents for treating neurodegenerative diseases and motor deficit disorders” (priority 2001, published 2005)
